Entries after “also recorded” stand apart in the source; their conditions may differ.
Experiments:
SURE CHO-M cell line [1] = test: Cell Secretion Assay (CSA) of Trastuzumab IgG-producing cells after synchronization; type: cell-based, Chinese hamster; conditions: 2 days post-transfection; vs asynchronized cells
Method: (§1) Asynchronous and synchronized SURE CHO-M cell™ lines (SELEXIS SA, Switzerland) were transfected with eGFP- (FIG. 1E) or Trastuzumab IgG-expression SLX-vectors (FIG. 1F and FIG. 1G) immediately after drugs release. Transfection was done by microporation (NEON TRANSFECTION SYSTEM, INVITROGEN), generating a heterogeneous pool of transfected cells. 24 h after transfection, 5 ug/ml puromycin selection agent (GIBCO) was added to the BalanCD medium (IRVINE) supplemented with 6 mM L-Glutamine (HYCLONE). Expression pools performances were then evaluated for GFP or IgG at different time points after transfection. The percentage and GFP fluorescence mean intensity (FMI) level were evaluated on cytometer imager at d2 and d11 post-transfection (CELIGO S; NEXCELOM). Results were represented as fold change of control cells (FIG. 1E; histograms).
The percentage and secretion mean intensity (SMI) of IgG-producing cells were determined at d2 (FIG. 1F) and d10 (FIG. 1G) post-transfection using Cell Secretion Assay methods (CSA).

SURE CHO-M cell line [2] = test: eGFP expression after transfection of synchronized CHO cells (cytometer imager); type: cell-based, Chinese hamster; conditions: day 2 and day 11 after transfection; synchronized prior to transfection vs non-synchronized cells
Method: as §1

SURE CHO-M cell line [3] = test: Cell cycle analysis of CHO cells by propidium iodide DNA content flow cytometry; type: cell-based, Chinese hamster; conditions: overnight in medium; DMSO 1%, APH 1 μM, MTX 1 uM, NOCO 1.5 μM
Method: SURE CHO-M cell™ line (SELEXIS SA, Switzerland, see: U.S. Pat. Nos. 7,129,062, 8,252,917 and 9,879,297, and U.S. Patent Applications No. 20110061117 and 20120231449, the disclosures of which are incorporated herein by reference in their entirety) were cultivated overnight in asynchronous condition (FIG. 1A) or in presence of DMSO 1%, aphidicholin (APH) 1 μM, methotrexate (MTX) 1 uM or nocodazole (NOCO) 1.5 μM (FIG. 1B). Cells were then fixed in ethanol and labelled overnight at 4° C. with propidium iodide (PI; 50 μg/ml, Sigma) in presence of RNAse (0.5 μg/ml, Sigma). DNA content index histograms were acquired on Guava EasyCyte System® using INCYTE acquisition software. Each phase of cell cycle was defined according to the drug treatment as G1 arrest (DMSO); S phase (APH); G2 (NOCO). The % of G0/G1, % of S and % of G2/M arrested cells were then calculated (see Table FIG. 1B).
Cell cycle was analyzed by flow cytometry at release (18 h with drug) and at 1, 2, 4, 6 and 8 h after release. Released cells were then further cultivated according to the indicated time points. Asynchronous (control) cells were included as controls. DNA content index histograms were acquired on Guava EasyCyte System® (MILLIPORE) using INCYTE acquisition software.

SURE CHO-M cells [4] = test: Cell recovery during antibiotic selection after synchronization and DNA repair modulation; conditions: S- and G2-synchronized cells, with DNA repair pathways inhibition
Method: SURE CHO-M cells™ (SELEXIS SA, Switzerland) were synchronized overnight with DMSO 1%, aphidicolin (APH) 1 μM, methotrexate (MTX) 1 μM or nocodazole (NOCO) 1.5 μM. After 18 hrs of incubation, cells were centrifuged, rinse twice into PBS 1× and resuspended in complete culture medium. Asynchronous and synchronized cells were transfected with trastuzumab IgG-plasmid expressing vector. Freshly transfected cells were then immediately resuspended and incubated overnight in presence of NU7441, RI-1, RS-1 or Olaparib small molecules (drugs provided by TOCRIS, CALBIOCHEM or APEXBIO TECHNOLOGY) before to change medium and start antibiotic selection.
Cell recovery behavior during antibiotic selection was monitored for each transfection condition and recorded as + or − signs.

SURE CHO-M cells [5] = test: Cell synchronization combined with DNA repair pathway modulators: CSA of trastuzumab IgG-producing cells; type: cell-based, Chinese hamster; conditions: for proportion of high-expressing cells: immediately after transfection, in combination with S and G2 arrest
Method: Freshly transfected cells were incubated in presence of various NHEJ, HR, MMEJ or SSA modulators immediately after electroporation to identify the DNA repair pathway involved in transgene integration and depending on the targeted cell cycle phase.

SURE CHO-M cells [6] = test: IgG transfection in presence of Sbf1 restriction enzyme and NU7441: CSA of stable cells; type: cell-based, Chinese hamster; conditions: Sbf1 present
Method: Asynchronized (AS) or G1-synchronized (G1) SURE CHO-M cells' (SELEXIS SA, Switzerland) were transfected with trastuzumab IgG-expressing vector in presence of Sbf1 restriction enzyme. Transfected cells were incubated overnight in presence of the NHEJ inhibitor—NU7441 ([…])—before change of medium and start antibiotic selection. The histograms show cell secretion assay (CSA) as percentage (white bar) and secretion mean intensity (SMI) (grey bar) of total producing cells (FIG. 6A) or of the high-, medium- and low-producing subpopulations (FIG. 6B) performed on stable trastuzumab-expressing cells.

SURE CHO-M cells [7] = test: Nu7441 treatment before transfection: productivity in 9-day fedbatch (ELISA titer, PCD); type: cell-based, Chinese hamster; conditions: 0.4 μM just before transfection
Method: SURE CHO-M cells™ (SELEXIS SA, Switzerland) were treated with 0.4 μM of DNA-PK inhibitor Nu7441 (TOCRIS) just before transfection of 3 μg of the antibody DNA fragment, respectively Trastuzumab (Tras) or Adalimumab (ADA). Transfection was done by microporation (Neon Transfection system, Invitrogen). 24 h after transfection, 5 μg/ml puromycin selection agent (Gibco) was added.
Growth and performance of the 6 top clones of each enzymatic condition were evaluated in spin tube in a 9-day fedbatch process using Acto CHO A+B feed (GE Healthcare). Fed-batch cultures were initiated at cell concentrations of 0.3×10^6 cells/ml in 5 mL working volume run. Cell density and cell viability along the process were evaluated by using a Guava System (Millipore) and supernatant sample was collected. Antibody product titer was evaluated by ELISA capture assay against the collected supernatant, at day 9 of the fedbatch process. Productivity per cell per day (PCD) was calculated as function of titer and viable cell density during the fedbatch process.

SURE CHO-M cells [8] = test: Cell synchronization with plasmid or CRISPR/Cas-mediated transgene integration: fed-batch PCD; set-up: species or system Chinese hamster; conditions: G1 synchronization, DMSO 1% overnight, plasmid-based and CRISPR/Cas9-mediated expression system
Method: Asynchronous and synchronized cells were transfected with IgG-trastuzumab expressing vectors and cultivated under antibiotic selection for 10 days.
Stable expressing pools were subcultivated in complete culture medium for 4 subsequent passages in spin tubes (5 ml wv) (FIG. 4B). Cell density (Cv·ml^−1) and IgG titer values (μg·ml^−1) were determined. […] Growth and performance of each stable established IgG-expressing pool was then evaluated in spin tube in a 9-day fedbatch process using Acto CHO A+B feed (GE Healthcare). Fed-batch cultures were initiated at cell concentrations of 0.3×10^6 cells/ml in 5 mL working volume run. (FIG. 4C). The specific IgG productivity was determined as the slope of IgG concentration versus the integral number of viable cells (IVCD) and expressed as pg per cell and per day (pcd). Histograms represented the fold change of productivity per cell per day (PCD) obtained for DMSO and 4° C. pre-treatment compared to their respective untreated-controls cells.

[9] = after 10 days of antibiotic selection, NU7441 0.4 mM overnight, AS_NU and G1_NU vs AS and G1

## CN(Cc1cnc2nc(N)nc(N)c2n1)c1ccc(C(=O)N[C@@H](CCC(=O)O)C(=O)O)cc1 [MTX, methotrexate]
SURE CHO-M cell line [1]
  % of Trastuzumab-expressing cells: higher
  mean intensity of Trastuzumab-expressing cells: higher
SURE CHO-M cell line [2]
  mean intensity of GFP-expressing cells: higher
  percentage of GFP-expressing cells: higher
SURE CHO-M cell line [3]
  cell cycle phase at which cells are arrested: G1/S phase
SURE CHO-M cells [4]
  cytotoxic effect (cells failed to pass the antibiotic selection): lethal cytotoxic effect

## COC(=O)Nc1nc2ccc(C(=O)c3cccs3)cc2[nH]1 [NOCO, nocodazole]
SURE CHO-M cell line [1]
  % of Trastuzumab-expressing cells: higher
  mean intensity of Trastuzumab-expressing cells: higher
SURE CHO-M cell line [2]
  mean intensity of GFP-expressing cells: higher
  percentage of GFP-expressing cells: higher
SURE CHO-M cells [4]
  cytotoxic effect (cells failed to pass the antibiotic selection): lethal cytotoxic effect

## O=C(c1cc(Cc2n[nH]c(=O)c3ccccc23)ccc1F)N1CCN(C(=O)C2CC2)CC1 [Olaparib]
SURE CHO-M cells [5]
  proportion of high-expressing cells: higher

## O=c1cc(N2CCOCC2)oc2c(-c3cccc4c3sc3ccccc34)cccc12 [Nu7441]
SURE CHO-M cells [5]
  proportion of high-expressing cells: higher
SURE CHO-M cells [6]; G1 phase synchronized and Nu7441 treated, after 10 days selection
  high- and medium-producing cells subpopulations: significant increase
SURE CHO-M cells [6]; [9]
  mean intensity of IgG-expressing cells: higher
  percentage of IgG-expressing cells: higher
SURE CHO-M cells [6]; combination with G1 phase synchronization (G1_NU compared to AS)
  proportion of IgG-producing cells: best
SURE CHO-M cells [7]; Trastuzumab
  productivity per cell per day (PCD): clear increased
SURE CHO-M cells [7]; adalimumab
  productivity per cell per day (PCD): less evident
SURE CHO-M cells [7]; both antibody molecules (Trastuzumab, Adalimumab)
  productivity (antibody product titer): increase

## C[C@@]1(CO)[C@H](O)CC[C@@]2(C)[C@H]1CC[C@H]1C[C@@H]3C[C@@]12CC[C@]3(O)CO [APH, aphidicolin]
SURE CHO-M cell line [3]
  cell cycle phase at which cells are arrested: S phase

## C[S+](C)[O-] [DMSO, dimethyl sulfoxide]
SURE CHO-M cells [5]; after 10 days of antibiotic selection, G1-synchronized, with or without DNA repair modulators, vs asynchronous controls
  high-producing subpopulation (% HP) of stable IgG-producing cells: increase
SURE CHO-M cell line [3]
  cell cycle phase at which cells are arrested: G1 arrest; also recorded: G1 phase
SURE CHO-M cells [8]
  productivity (fold change of PCD vs untreated control cells): significant increase

## O=C1C(Cl)=C(N2CCOCC2)C(=O)N1c1ccc(Cl)c(Cl)c1 [RI-1]
SURE CHO-M cells [5]
  proportion of high-expressing cells: higher

Source: patent US20200109421A1, “METHODS FOR INTEGRATION OF TRANSGENE DNA” (Selexis S.A., priority 2018, published 2020)
